In paper PMC8831520, “Small molecule SWELL1 complex induction improves glycemic control and nonalcoholic fatty liver disease in murine Type 2 diabetes” (Nature Communications, 2022):
Like-named read-outs stand apart in the source and are kept apart here.

Molecular target: T1, ICl,SWELL (SWELL1-LRRC8 channel) in HEK-293 cells (Homo sapiens, UniProt Q8IWT6)
T1 construct: applied when the endogenous HEK-293 cell ICl,SWELL current density reached 30 pA/pF; endogenous in cells; host or cells: HEK-293 (ATCC, #CRL-1573)
T1 sequence (Q8IWT6 1-810): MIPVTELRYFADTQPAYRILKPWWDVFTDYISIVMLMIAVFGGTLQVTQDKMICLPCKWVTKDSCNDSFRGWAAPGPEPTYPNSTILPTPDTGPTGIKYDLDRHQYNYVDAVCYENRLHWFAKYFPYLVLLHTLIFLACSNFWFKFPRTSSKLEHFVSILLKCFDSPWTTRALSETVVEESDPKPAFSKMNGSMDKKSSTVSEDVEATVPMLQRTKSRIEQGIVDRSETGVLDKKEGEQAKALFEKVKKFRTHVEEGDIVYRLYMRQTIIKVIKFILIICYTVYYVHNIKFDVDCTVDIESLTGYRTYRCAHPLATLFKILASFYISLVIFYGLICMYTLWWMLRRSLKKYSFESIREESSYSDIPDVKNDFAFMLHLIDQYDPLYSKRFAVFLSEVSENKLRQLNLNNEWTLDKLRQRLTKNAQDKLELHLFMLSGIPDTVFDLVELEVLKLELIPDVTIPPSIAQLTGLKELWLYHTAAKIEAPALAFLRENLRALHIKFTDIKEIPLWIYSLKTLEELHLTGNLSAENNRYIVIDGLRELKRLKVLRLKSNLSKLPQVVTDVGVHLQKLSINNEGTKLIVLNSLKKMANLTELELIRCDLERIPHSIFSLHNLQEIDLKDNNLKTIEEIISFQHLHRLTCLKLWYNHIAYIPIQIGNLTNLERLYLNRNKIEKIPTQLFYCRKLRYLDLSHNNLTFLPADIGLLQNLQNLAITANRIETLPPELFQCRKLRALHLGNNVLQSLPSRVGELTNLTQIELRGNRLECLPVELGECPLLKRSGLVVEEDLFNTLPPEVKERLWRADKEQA
Assay: ICl,SWELL inhibition after hypotonic activation (open channel), patch-clamp
Type: cell-based
Conditions: for inhibition of channels first opened by hypotonic activation: 1 μM
Experimental: Patch-clamp recordings of β-cells, 3T3-F442A adipocytes, and mature human adipocytes were performed as described previously[24],[28]. Briefly, all patch-clamp experiments were conducted at room temperature using either an Axopatch 200B amplifier or a MultiClamp 700B amplifier paired to a Digidata 1550 digitizer. Data were acquired using pClamp 10.4 software. For hypotonic swelling, extracellular solution consisted of the following (in mM): 90 NaCl, 2 CsCl, 1 MgCl2, 1 CaCl2, 10 HEPES, 10 mannitol, pH 7.4 with NaOH (210 mOsm/kg). The isotonic extracellular solution consisted of the same composition above but with 110 mM instead of 10 mM mannitol (300 mOsm/kg). The swell-activated current was elicited by perfusing cells with a hypotonic solution (210 mOsm/kg). […] For perforated-patch recordings in isolated human adipocytes, the intracellular solution was as above but without ATP and GTP, and contained 360 μg/ml Amphotericin B (Sigma). The holding potential was 0 mV. Voltage ramps from −100 to +100 mV (at 0.4 mV/ms) were applied every 4 s. The sampling interval was 100 μs and filtered at 10 kHz. For perforated-patch recordings, cells with a membrane resistance below 1 GΩ or access resistance above 20 MΩ were discarded. […]

[1] = HEK-293 cells, hypotonic (210 mOsm) stimulation, outward current, compound applied at 30 pA/pF, read-out: IC50 for ICl,SWELL inhibition

| Structure (SMILES) | inhibition of channels first opened by hypotonic activation | ICl,SWELL inhibitory activity compared to SN-401 (HEK-293 cells) | concentrations required to effectively inhibit channels when first opened by hypotonic activation (HEK-293 cells) [µM] | IC50 [1] [µM] | IC50 [µM] |
| --- | --- | --- | --- | --- | --- |
| CCCCC1(C2CCCC2)Cc2cc(OCCCCCC(=O)O)c(Cl)c(Cl)c2C1=O (centres unmarked) [SN-406, 6-((2-butyl-6,7-dichloro-2-cyclopentyl-1-oxo-2,3-dihydro-1H-inden-5-yl)oxy)hexanoic acid] | relatively ineffective | increased ICl,SWELL inhibitory activity | 6 to 10 | 3.1 |  |
| CCCCC1(C2CCCC2)Cc2cc(OCCCC(=O)O)c(Cl)c(Cl)c2C1=O (centres unmarked) [SN-401, 4-((2-butyl-6,7-dichloro-2-cyclopentyl-1-oxo-2,3-dihydro-1H-inden-5-yl)oxy)butanoic acid] | relatively ineffective |  | 6 to 10 |  | 3.9 |
| CCCCC1(C2CCCC2)Cc2cc(OCC(=O)O)c(Cl)c(Cl)c2C1=O (centres unmarked) [Inactive 1, 2-((2-butyl-6,7-dichloro-2-cyclopentyl-1-oxo-2,3-dihydro-1H-inden-5-yl)oxy)acetic acid] |  |  |  | 35.5 |  |
